Data as given in US8030323B2, “Pyrazole carboxamide derivatives, pharmaceutical compositions and its preparation” (Beijing Molecule Science and Technology Co., Ltd., priority 2006, dated 2011).

Molecular target: T1, CBI receptor (Rattus norvegicus, UniProt P20272)
T1 construct: Preparation of CBI receptor membrane protein in cerebellum of rat; from tissue; host or cells: Wistar rat cerebellum membranes
Experiment: Drug and CBI receptor competition binding experiment (rat cerebellum membrane protein)
Settings: CBI receptor membrane protein from Wistar rat cerebellum; 30° C. for 1 hour; 1×10^−7 to 1×10^−11 mole concentration; read-out: antagonistic concentration of 50% (EC50) to CBI receptor
Protocol: 2.1 Preparation of CBI receptor membrane protein in cerebellum of rat: Wistar rat, 220-260 g, female and male being not limited, was killed by cutting head, its cerebellum was separated rapidly, weighted and added to a buffer of Tris-HCl in 10 times of volume (50 mM, Tris HCl, 5 mM MgCl2.6H2O, 1 mM EDTA, 0.5% (W/V) BSA, pH 7.4), homogenized by using homogenizer at 15000 rpm/min, 30 seconds once, 5 times in total. The homogenized liquid was centrifuged at 400×g for 10 minutes, the supernatant was centrifuged at 39000×g for 10 minutes, the precipitate was collected, re-suspended with Tris-HCl buffer of pH 7.4 in 10 times of volume of the original weight, and centrifuged at 39000×g for 10 minutes, the precipitate was washed with the same buffer, and centrifuged at 39000×g for 10 minutes, the resultant precipitate was washed with Tris-HCl. […]
100 μg of receptor protein, 20 μl of the compound in Example 1 in mole concentration of 1×10^−7, 1×10^−8, 1×10^−9, 1×10^−10 and 1×10^−11, respectively were added successively, reacted at 30° C. for 1 hour, the sample was spotted on glass fiber filtration membrane, filtrated under negative pressure, washed with cold buffer for 10 times, 2 ml per time, the filtration membrane was unwatered, dried over oven, and placed in scintillation bottle, added 1 ml scintillating liquid, the radioactivity strength was detected by LS6500 scintillation counter.

T1 sequence (P20272 whole entry): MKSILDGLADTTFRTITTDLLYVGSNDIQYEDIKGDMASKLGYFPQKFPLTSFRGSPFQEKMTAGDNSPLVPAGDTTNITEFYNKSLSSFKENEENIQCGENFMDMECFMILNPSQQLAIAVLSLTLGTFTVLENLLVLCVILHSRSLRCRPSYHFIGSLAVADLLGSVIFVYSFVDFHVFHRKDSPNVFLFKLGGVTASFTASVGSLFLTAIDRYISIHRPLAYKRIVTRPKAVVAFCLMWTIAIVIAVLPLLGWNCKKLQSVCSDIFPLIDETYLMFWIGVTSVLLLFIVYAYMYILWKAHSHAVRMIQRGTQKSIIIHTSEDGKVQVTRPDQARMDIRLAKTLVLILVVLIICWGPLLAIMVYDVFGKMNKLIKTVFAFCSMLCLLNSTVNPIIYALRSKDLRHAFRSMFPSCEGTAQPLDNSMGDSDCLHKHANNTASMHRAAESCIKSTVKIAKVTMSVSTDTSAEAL

EC50: 130 pM
Compound: Cc1c(C(=O)NCc2cccnc2)nn(-c2ccc(Cl)cc2Cl)c1-c1ccc(Cl)cc1 [Example 1, N-(3-aminomethyl-pyridyl)-5-(4-chlorophenyl)-1-(2,4-dichlorophenyl)-4-methyl pyrazol-3-carboxamide]
